Measured values published in US11919871B1, “3-(3-chlorophenyl)-5-((2-isopropyl-5- methylphenoxy)methyl)-1,2,4-oxadiazole as an anti-cancer and antimicrobial compound” (KING FAISAL UNIVERSITY, priority 2023, dated 2024).

Assays:
[1] = test system: Chrysosporium keratinophilum; assay: Agar plate disc-diffusion, antifungal inhibition zone; assay type: cell-based; details: 72 h for fungi
Experimental: (§1) The agar plate disc-diffusion method was applied. Sterilized filter papers (6 mm in diameter) were wetted with 10 μL of a solution of 3-(3-chlorophenyl)-5-((2-isopropyl-5-methylphenoxy)methyl)-1,2,4-oxadiazole (3) to be tested, containing 10 mg/mL in DMSO, and the discs were allowed to air dry. The discs were then placed onto the surface of agar plates (nutrient agar for bacteria and Sabouraud's dextrose agar for fungi) seeded with the test organism. Each plate contained 15 mL of the agar medium, previously seeded with 0.2 mL of the broth culture of each organism pregrown for 18 hours. The plates were incubated at 37° C. for 48 h, and 72 h for fungi. The inhibition zones were measured in mm. Discs impregnated with DMSO were used as a control, and its inhibition zone was subtracted from the tested compound actual inhibition zone.

[2] = test system: Bacillus cereus; assay: Agar plate disc-diffusion, antibacterial inhibition zone; assay type: cell-based; details: 37° C., 48 h
Experimental: as §1, with “Sterilized filter papers (6 mm in diameter) were wetted with 10 μL of a solution of 3-(3-chlorophenyl)-5-((2-isopropyl-5-methylphenoxy)methyl)-1,2,4-oxadiazole (3) to be tested, containing 10 mg/mL in DMSO, and the discs were allowed to air dry.” left out

[3] = test system: Escherichia coli; assay: as above; assay type: cell-based; details: 37° C., 48 h
Experimental: as §1, with “Sterilized filter papers (6 mm in diameter) were wetted with 10 μL of a solution of 3-(3-chlorophenyl)-5-((2-isopropyl-5-methylphenoxy)methyl)-1,2,4-oxadiazole (3) to be tested, containing 10 mg/mL in DMSO, and the discs were allowed to air dry.” left out

[4] = test system: Pseudomonas aeruginosa; assay: as above; assay type: cell-based; details: 37° C., 48 h
Experimental: as §1, with “Sterilized filter papers (6 mm in diameter) were wetted with 10 μL of a solution of 3-(3-chlorophenyl)-5-((2-isopropyl-5-methylphenoxy)methyl)-1,2,4-oxadiazole (3) to be tested, containing 10 mg/mL in DMSO, and the discs were allowed to air dry.” left out

[5] = test system: Staphylococcus aureus; assay: as above; assay type: cell-based; details: 37° C., 48 h
Experimental: as §1, with “Sterilized filter papers (6 mm in diameter) were wetted with 10 μL of a solution of 3-(3-chlorophenyl)-5-((2-isopropyl-5-methylphenoxy)methyl)-1,2,4-oxadiazole (3) to be tested, containing 10 mg/mL in DMSO, and the discs were allowed to air dry.” left out

[6] = test system: Aspergillus flavus; assay: Agar plate disc-diffusion, antifungal inhibition zone; assay type: cell-based; details: 72 h for fungi
Experimental: as §1, with “Sterilized filter papers (6 mm in diameter) were wetted with 10 μL of a solution of 3-(3-chlorophenyl)-5-((2-isopropyl-5-methylphenoxy)methyl)-1,2,4-oxadiazole (3) to be tested, containing 10 mg/mL in DMSO, and the discs were allowed to air dry.” left out

[7] = test system: different microbes; assay: Antimicrobial activity, overall statement (agar plate disc-diffusion); assay type: cell-based; details: against different microbes (bacteria and fungi of Tables 1 and 2)
Experimental: as §1

[8] = test system: human prostate cancer cells (PC3); assay: Cytotoxicity by SRB assay; assay type: cell-based; details: 0.01 μM to 100 μM for 72 h
From the text: (§2) The anticancer activity of the described synthesized compounds against highly aggressive androgen-independent metastatic human prostate cancer cells (PC3) and osteosarcoma (MG-63) cells. The human prostate cancer cells (PC3) and human osteosarcoma cells (MG-63) were obtained from Nawah Scientific Inc. (Mokatam, Cairo, Egypt) and cultured in DMEM (Dulbecco's modified eagle's medium), Gibco, USA, supplemented with fetal bovine serum (FBS) at a concentration of 10% and 100 U/mL of penicillin and streptomycin (PS). The Cells were incubated at 37° C. in a humidified environment that contained 5% CO2.
(§3) Cells were seeded in 96-well plates as aliquots of 100 μL cell suspension and incubated in a complete media for 24 h. afterward, cells were treated with 3-(3-chlorophenyl)-5-((2-isopropyl-5-methylphenoxy)methyl)-1,2,4-oxadiazole at diverse concentrations ranging from 0.01 μM to 100 μM for 72 h. Then, cells were fixed at 4° C. for one hour with 150 μL of 10% trichloroacetic acid (TCA). […] Then, 150 μL of Tris pH 10.5 (10 mM) was added, and the absorbance was measured at 540 nm using a BMG LABTECH®-FLUOstar Omega microplate reader (Ortenberg, Germany). Half maximal inhibitory concentrations (IC50) values were calculated for each experiment using GraphPad Prism 6 software. […]
(§4) The inhibition was calculated using the following equation: Inhibition %=100−Average Viability

[9] = test system: human osteosarcoma cells (MG-63); assay: Cytotoxicity by SRB assay; assay type: cell-based; details: MG-63 cells, 0.01 μM to 100 μM for 72 h
From the text: as §2, §3, §4

[10] = A = concentration of comp. = 10,000 μL
[11] = B = concentration of comp. = 30,000 μL
[12] = C = concentration of comp. = 50,000 μL

| SMILES | inhibition zone [1, 10] | inhibition zone [1, 11] | inhibition zone [1, 12] | inhibition zone [2, 10] | inhibition zone [2, 11] | inhibition zone [2, 12] | inhibition zone [3, 10] | inhibition zone [3, 11] | inhibition zone [3, 12] | inhibition zone [4, 10] | inhibition zone [4, 11] | inhibition zone [4, 12] | inhibition zone [5, 10] | inhibition zone [5, 11] | inhibition zone [5, 12] | inhibition zone [6, 10] | inhibition zone [6, 11] | inhibition zone [6, 12] | further results |
| --- | --- | --- | --- | --- | --- | --- | --- | --- | --- | --- | --- | --- | --- | --- | --- | --- | --- | --- | --- |
| Cc1ccc(C(C)C)c(OCc2nc(-c3cccc(Cl)c3)no2)c1 [Compound 3, 3-(3-chlorophenyl)-5-((2-isopropyl-5-methylphenoxy)methyl)-1,2,4-oxadiazole] | 27 mm | 29 mm | 48 mm | 30 mm | 31 mm | 39 mm | 24 mm | 35 mm | 50 mm | 24 mm | 28 mm | 38 mm | 13 mm | 17 mm | 20 mm | 18 mm | 20 mm | 29 mm | melting point: 151 to 153 °C; antimicrobial activities [7]: excellent antimicrobial activities |
| O=C(O)c1cn(C2CC2)c2cc(N3CCNCC3)c(F)cc2c1=O [Cip., ciprofloxacin, reference compound] | 29 mm | 30 mm | 53 mm | 29 mm | 30 mm | 42 mm | 30 mm | 39 mm | 60 mm | 29 mm | 30 mm | 53 mm | 43 mm | 44 mm | 53 mm | 29 mm | 30 mm | 42 mm | – |
| Cc1ccc(C(C)C)c(OCc2nc(-c3cccc(Cl)c3)no2)c1 [3-(3-chlorophenyl)-5-((2-isopropyl-5-methylphenoxy)methyl)-1,2,4-oxadiazole] | – | – | – | – | – | – | – | – | – | – | – | – | – | – | – | – | – | – | antiproliferative activities [8]: excellent antiproliferative activities; antiproliferative activities [9]: excellent antiproliferative activities |
